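Five compound concentrations were applied to cells in 96-well plates for 48 hours; endpoints were derived by simple linear interpolation of the resulting dose-response curve. GI50 marks 50% less growth.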 Calls of active or inactive are those of the source. Cut-off read from the data, not from the text of the source: active = GI50 up to about 1.1 µM and inactive = higher.
Assays:
Test in all cases: NCI tumour cell line growth inhibition, 48 h
A498 = test system: A498
CAKI-1 = test system: CAKI-1
EKVX = test system: EKVX
HCT-15 = test system: HCT-15
HL-60 = test system: HL-60
HT-29 = test system: HT-29
RXF 393 = test system: RXF 393
SF-295 = test system: SF-295
SN12C = test system: SN12C
SNB-19 = test system: SNB-19
SNB-75 = test system: SNB-75
U-251 = test system: U-251
UACC-257 = test system: UACC-257
UACC-62 = test system: UACC-62
UO-31 = test system: UO-31
CCRF-CEM = test system: CCRF-CEM
K562 = test system: K562
Malme-3M = test system: Malme-3M

| Compound | GI50 (A498) | GI50 (CAKI-1) | GI50 (EKVX) | GI50 (HCT-15) [µM] | GI50 (HL-60) | GI50 (HT-29) | GI50 (RXF 393) | GI50 (SF-295) | GI50 (SN12C) | GI50 (SNB-19) | GI50 (SNB-75) | GI50 (U-251) | GI50 (UACC-257) | GI50 (UACC-62) | GI50 (UO-31) | GI50 (CCRF-CEM) | GI50 (K562) | GI50 (Malme-3M) |
| --- | --- | --- | --- | --- | --- | --- | --- | --- | --- | --- | --- | --- | --- | --- | --- | --- | --- | --- |
| Cc1ccc2c(c1)[nH]c(=S)n2C=C(C(N)=O)C(N)=O | > 100 µM (inactive) | > 100 µM (inactive) | 33.3 µM (inactive) | > 100 | 5.66 µM (inactive) | > 100 µM (inactive) | > 100 µM (inactive) | > 100 µM (inactive) | > 100 µM (inactive) | > 100 µM (inactive) | > 100 µM (inactive) | > 100 µM (inactive) | > 100 µM (inactive) | > 100 µM (inactive) | > 100 µM (inactive) | – | – | – |
| O=C(N/C(=C\c1ccc(Br)cc1)c1nc2ccccc2s1)c1ccccc1 | 90.8 µM (inactive) | > 100 µM (inactive) | 37.5 µM (inactive) | 46.1 | – | 69.2 µM (inactive) | 43.4 µM (inactive) | – | > 100 µM (inactive) | 47 µM (inactive) | > 100 µM (inactive) | 56 µM (inactive) | > 100 µM (inactive) | 71 µM (inactive) | 40.3 µM (inactive) | 21.5 µM (inactive) | 51.4 µM (inactive) | > 100 µM (inactive) |
| O=C(CSC(=S)N1CCOCC1)Nc1nc2c(s1)CCCC2 | > 100 µM (inactive) | – | 99.5 µM (inactive) | > 100 | 27.7 µM (inactive) | > 100 µM (inactive) | – | > 100 µM (inactive) | > 100 µM (inactive) | – | > 100 µM (inactive) | > 100 µM (inactive) | 45.7 µM (inactive) | – | 41.4 µM (inactive) | 45.8 µM (inactive) | – | 45.3 µM (inactive) |
| CCOc1ccc(N2C(=O)C3c4[nH]c5ccccc5c4C4CCC(C(C)(C)C)CC4C3C2=O)cc1 (centres undefined) | > 100 µM (inactive) | – | > 100 µM (inactive) | > 100 | 44.9 µM (inactive) | 32.1 µM (inactive) | 21.8 µM (inactive) | > 100 µM (inactive) | 51.3 µM (inactive) | > 100 µM (inactive) | > 100 µM (inactive) | > 100 µM (inactive) | > 100 µM (inactive) | > 100 µM (inactive) | 69.2 µM (inactive) | 10.3 µM (inactive) | > 100 µM (inactive) | > 100 µM (inactive) |
| N#CCCN(CCC#N)c1ccc(/C=N\c2nc(-c3ccccc3)cs2)cc1 | > 100 µM (inactive) | > 100 µM (inactive) | > 100 µM (inactive) | > 100 | > 100 µM (inactive) | > 100 µM (inactive) | 39.7 µM (inactive) | 45.7 µM (inactive) | > 100 µM (inactive) | > 100 µM (inactive) | 29.8 µM (inactive) | – | > 100 µM (inactive) | > 100 µM (inactive) | > 100 µM (inactive) | – | > 100 µM (inactive) | > 100 µM (inactive) |
| O=C1C[C@@H]2C(COC(=O)c3ccccc3)N(OCc3ccccc3)C[C@@H]2O1 (some centres undefined) | > 100 µM (inactive) | – | > 100 µM (inactive) | > 100 | > 100 µM (inactive) | > 100 µM (inactive) | > 100 µM (inactive) | – | > 100 µM (inactive) | > 100 µM (inactive) | > 100 µM (inactive) | > 100 µM (inactive) | > 100 µM (inactive) | > 100 µM (inactive) | > 100 µM (inactive) | > 100 µM (inactive) | > 100 µM (inactive) | > 100 µM (inactive) |
| CCCCCCCCCCCCC(SCCNC(=O)CCNC(=O)C(O)C(C)(C)COP(=O)(O)OP(=O)(O)OCC1OC(n2cnc3c(N)ncnc32)C(O)C1OP(=O)(O)O)C(=O)NCC(N)=O (centres undefined) | > 100 µM (inactive) | – | > 100 µM (inactive) | > 100 | 72.9 µM (inactive) | > 100 µM (inactive) | 36 µM (inactive) | > 100 µM (inactive) | 40.1 µM (inactive) | 66.7 µM (inactive) | 2.6 µM (inactive) | 34.9 µM (inactive) | > 100 µM (inactive) | > 100 µM (inactive) | 64.9 µM (inactive) | > 100 µM (inactive) | – | > 100 µM (inactive) |

Source: ChEMBL document CHEMBL1201862, “PubChem BioAssay data set” (2004)
